# Tested on: IL-8 production by TNF-α in ARPE-19
# Experiment: Inhibitory effect on IL-8 production by TNF-α from retinal pigment epithelial cells
# Type: cell-based, human
# Settings: all-trans form content 50 μM, 16 h, then TNF-α 4 h, FIG. 5, n=3
# From the text: Age-related macular degeneration is known to involve the accumulation of drusen under the retinal pigment epithelium. Drusen attract macrophages and macrophages secrete TNF-α. TNF-α acts on the retinal pigment epithelium and its peripheral tissue, and the cells subsequently produce a variety of cytokines and cause inflammation (Mol Vis. 2008 14: 2292-303). Atypical cytokine that is involved in neutrophil migration and spreads inflammation is interleukin-8 (IL-8). In this experiment, the inhibitory effect of GGA on IL-8 production by TNF-α was examined using a human-derived retinal pigment epithelial cell line, ARPE-19. […]
# After 4 hours of incubation, 150 μL of the cell culture supernatant was collected and stored at −80° C. […] Then, 100 μL of an equivalent mixture of a cell viability detection reagent Cell Titer-Glo and PBS was added to each well and the luminescence produced by the reaction with ATP in living cells was measured with a luminometer. From the measured luminescence, the cell viability was calculated by the following formula. Cell viability(%)=100×[(luminescence of GGA-treated group)/(luminescence of base-treated group)]
# The stored cell culture supernatant was allowed to warm to room temperature, and the IL-8 concentration was quantified with Human CXCL8/IL-8 Quantikine ELISA Kit (R&D Systems). […]
compound,measurement,value
"CC(=O)CC/C=C(\C)CC/C=C(\C)CC/C=C(\C)CCC=C(C)C [all-trans form, (5E,9E,13E)-6,10,14,18-tetramethyl-5,9,13,17-nonadecatetrae n-2-one]",inhibitory effect on IL-8 production compared with GGA 6:4,significant inhibitory effect on IL-8 production

# — patent US9724312B2, “Agent for the prevention, improvement or treatment of retinal disease” (ROHTO PHARMACEUTICAL CO., LTD., priority 2012, dated 2017)
